Reference: patent publication US20100105655A1, “NOVEL COMPOUNDS 515” (ASTRAZENECA AB, priority 2008, published 2010)

target: T1, IGFR kinase (Homo sapiens, UniProt P08069); assay: Enzyme assay (c), IGFR kinase, Caliper LabChip; assay type: biochemical; details: 30 nM IGFR kinase, 6 uM ATP, 3 uM peptide mix; read-out: IGFR IC50
T1 construct: purchased Millipore
Description: For Echo dosing the solvent was 100% DMSO. A master plate was prepared with 40 ul of 10 mM stock solution of the test compound in DMSO in quadrant 1 of a Labcyte 384 well plate. A 1 in 100 dilution was made from quadrant 1 into quadrant 2 by removing 0.4 ul and adding it to 39.6 ul of DMSO. Subsequent 1 in 100 dilutions were made into quadrant 3 from quadrant 2 and quadrant 4 from quadrant 3.
Multiple 2.5 nl droplets were dispensed from each quadrant of the master plate to generate the dose range that was required in the test. The dose range most commonly used was as follows: 100 uM, 30 uM, 10 uM, 3 uM, 1 uM, 0.3 uM, 0.1 uM, 0.03 uM, 0.01 uM, 0.003 uM, 0.001 uM, 0.0001 uM. Each well was backfilled with dimethyl sulfoxide (DMSO) to a total volume of 120 nl, such that when the enzyme and substrate mix was added the final DMSO concentration was 1%.
DMSO was added to max control wells as 120 nl, minimum control wells were treated with 120 nl of compound at a concentration that inhibited the enzyme activity 100%.
Integration of the substrate and product peaks was carried out using Caliper LabChip software and IC50 curves were calculated using Origin™ software.

T1 sequence (P08069 31-1367): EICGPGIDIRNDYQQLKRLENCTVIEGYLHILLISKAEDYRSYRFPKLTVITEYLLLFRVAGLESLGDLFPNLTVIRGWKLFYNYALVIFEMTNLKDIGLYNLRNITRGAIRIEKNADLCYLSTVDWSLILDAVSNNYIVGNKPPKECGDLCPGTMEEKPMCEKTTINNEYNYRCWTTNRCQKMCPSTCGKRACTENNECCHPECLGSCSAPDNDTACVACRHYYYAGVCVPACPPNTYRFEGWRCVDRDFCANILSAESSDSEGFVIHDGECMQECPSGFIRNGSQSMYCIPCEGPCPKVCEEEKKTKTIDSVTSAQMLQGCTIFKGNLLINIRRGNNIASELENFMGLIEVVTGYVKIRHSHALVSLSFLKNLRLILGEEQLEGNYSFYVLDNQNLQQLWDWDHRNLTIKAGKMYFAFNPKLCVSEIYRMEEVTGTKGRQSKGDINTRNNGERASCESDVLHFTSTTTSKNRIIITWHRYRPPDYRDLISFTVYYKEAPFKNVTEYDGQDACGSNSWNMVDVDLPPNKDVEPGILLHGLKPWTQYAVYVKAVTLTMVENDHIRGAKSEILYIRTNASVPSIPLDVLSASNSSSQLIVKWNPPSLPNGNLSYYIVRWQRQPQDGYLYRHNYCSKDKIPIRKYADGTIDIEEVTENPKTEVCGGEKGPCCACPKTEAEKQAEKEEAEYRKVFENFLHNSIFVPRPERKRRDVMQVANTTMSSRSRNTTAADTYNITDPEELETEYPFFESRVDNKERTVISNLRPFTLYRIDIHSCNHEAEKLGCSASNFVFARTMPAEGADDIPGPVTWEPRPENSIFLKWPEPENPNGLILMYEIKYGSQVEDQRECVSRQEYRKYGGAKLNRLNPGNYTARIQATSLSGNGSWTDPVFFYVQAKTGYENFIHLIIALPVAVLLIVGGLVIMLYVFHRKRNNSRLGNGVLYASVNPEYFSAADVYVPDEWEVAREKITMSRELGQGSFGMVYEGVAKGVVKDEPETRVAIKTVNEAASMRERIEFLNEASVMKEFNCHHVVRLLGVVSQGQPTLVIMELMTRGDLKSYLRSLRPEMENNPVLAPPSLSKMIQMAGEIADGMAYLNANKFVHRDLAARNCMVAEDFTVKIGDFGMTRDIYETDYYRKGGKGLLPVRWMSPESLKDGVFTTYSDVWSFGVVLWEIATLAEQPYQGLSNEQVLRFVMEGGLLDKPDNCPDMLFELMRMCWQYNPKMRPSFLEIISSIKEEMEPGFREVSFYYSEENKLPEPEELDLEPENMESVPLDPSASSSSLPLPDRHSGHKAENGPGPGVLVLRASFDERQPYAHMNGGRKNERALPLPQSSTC

Row | SMILES | IC50
1 | COc1cc(N2CC(C)NC(C)C2)ccc1Nc1ncc(Cl)c(-c2cnc3ccccn23)n1 (stereo not drawn) [Example 3.6, 5-chloro-N-[4-(3,5-dimethylpiperazin-1-yl)-2-methoxy-phenyl]-4-imidazo[1,2-a]pyridin-3-yl-pyrimidin-2-amine] | 20 nM
2 | COc1cc(N2CCNCC2)ccc1Nc1ncc(Cl)c(-c2cnc3ccc(C#N)cn23)n1 [Example 266, 3-[5-chloro-2-(2-methoxy-4-piperazin-1-yl-anilino)pyrimidin-4-yl]imidazo[1,2-a]pyridine-6-carbonitrile] | 29 nM
3 | COc1cc(N2CCN(C[C@H](C)O)CC2)ccc1Nc1ncc(C)c(-c2cnc3ccccn23)n1 [Example 104, (2S)-1-[4-[4-[(4-imidazo[1,2-a]pyridin-3-yl-5-methyl-pyrimidin-2-yl)amino]-3-methoxy-phenyl]piperazin-1-yl]propan-2-ol] | 29 nM
4 | COc1cc(N2CCN(C)CC2)ccc1Nc1ncc(F)c(-c2cnc3ccccn23)n1 [Example 119, 5-fluoro-4-imidazo[1,2-a]pyridin-3-yl-N-[2-methoxy-4-(4-methylpiperazin-1-yl)phenyl]pyrimidin-2-amine] | 95 nM
5 | COc1cc(C2CNC(=O)C2)ccc1Nc1ncc(Cl)c(-c2cnc3ccccn23)n1 (stereo not drawn) [Example 3.24, 4-[4-[(5-chloro-4-imidazo[1,2-a]pyridin-3-yl-pyrimidin-2-yl)amino]-3-methoxy-phenyl]pyrrolidin-2-one] | 8 nM
6 | COc1cc(N2CCNCC2)ccc1Nc1ncc(F)c(-c2cnc3ccccn23)n1 [Example 73, 5-fluoro-4-imidazo[1,2-a]pyridin-3-yl-N-(2-methoxy-4-piperazin-1-yl-phenyl)pyrimidin-2-amine] | 71 nM
7 | COc1cc(N2CCN(CC(C)(C)O)CC2)ccc1Nc1ncc(Cl)c(-c2cnc3ccccn23)n1 [Example 52, 1-[4-[4-[(5-chloro-4-imidazo[1,2-a]pyridin-3-yl-pyrimidin-2-yl)amino]-3-methoxy-phenyl]piperazin-1-yl]-2-methyl-propan-2-ol] | 10 nM
8 | COc1cc(N2CCN(C(C)=O)CC2)ccc1Nc1ncc(C2CC2)c(-c2cnn3ccccc23)n1 [Example 234, 1-[4-[4-[(5-cyclopropyl-4-pyrazolo[1,5-a]pyridin-3-yl-pyrimidin-2-yl)amino]-3-methoxy-phenyl]piperazin-1-yl]ethanone] | 31 nM
9 | COc1cc(N2CCN(C(=O)CNC(C)=O)CC2)ccc1Nc1ncc(Cl)c(-c2cnc3ccccn23)n1 [Example 25.2, N-[2-[4-[4-[(5-chloro-4-imidazo[1,2-a]pyridin-3-yl-pyrimidin-2-yl)amino]-3-methoxy-phenyl]piperazin-1-yl]-2-oxo-ethyl]acetamide] | 13 nM
10 | COc1cc(C2CCN(C(=O)CO)CC2)ccc1Nc1ncc(Cl)c(-c2cnc3cc(C)ccn23)n1 [Example 245, 1-[4-[4-[[5-chloro-4-(7-methylimidazo[1,2-a]pyridin-3-yl)pyrimidin-2-yl]amino]-3-methoxy-phenyl]-1-piperidyl]-2-hydroxy-ethanone] | 4 nM
11 | COc1cc(N2CC3CN(CCO)CC(C2)O3)ccc1Nc1ncc(C)c(-c2cnn3ccccc23)n1 [Example 166, 2-[7-[3-methoxy-4-[(5-methyl-4-pyrazolo[1,5-a]pyridin-3-yl-pyrimidin-2-yl)amino]phenyl]-9-oxa-3,7-diazabicyclo[3.3.1]nonan-3-yl]ethanol] | 17 nM
12 | COc1cc(N2CC[C@@H](N)C2)ccc1Nc1ncc(Cl)c(-c2cnc3ccccn23)n1 [Example 71, N-[4-[(3R)-3-aminopyrrolidin-1-yl]-2-methoxy-phenyl]-5-chloro-4-imidazo[1,2-a]pyridin-3-yl-pyrimidin-2-amine] | 10 nM
13 | COCCN1CCN(CCOc2ccc(Nc3ncc(Cl)c(-c4cnc5ccccn45)n3)c(OC)c2)CC1 [Example 3.12, 5-chloro-4-imidazo[1,2-a]pyridin-3-yl-N-[2-methoxy-4-[2-[4-(2-methoxyethyl)piperazin-1-yl]ethoxy]phenyl]pyrimidin-2-amine] | 44 nM
14 | CNCC(=O)N1CCN(c2ccc(OC)c(Nc3ncc(C)c(-c4cnn5ccccc45)n3)c2)CC1 [Example 167, 1-[4-[4-methoxy-3-[(5-methyl-4-pyrazolo[1,5-a]pyridin-3-yl-pyrimidin-2-yl)amino]phenyl]piperazin-1-yl]-2-(methylamino)ethanone] | 49 nM
15 | CNC(=O)C1CCN(c2ccc(Nc3ncc(Cl)c(-c4cnc5c(F)cccn45)n3)c(OC)c2)CC1 [Example 222, 1-[4-[[5-chloro-4-(8-fluoroimidazo[1,2-a]pyridin-3-yl)pyrimidin-2-yl]amino]-3-methoxy-phenyl]-N-methyl-piperidine-4-carboxamide] | 3 nM
16 | COc1cc(N2CCNC(C(=O)N(C)C)C2)ccc1Nc1ncc(Cl)c(-c2cnc3ccccn23)n1 (stereo not drawn) [Example 19, 4-[4-[(5-chloro-4-imidazo[1,2-a]pyridin-3-yl-pyrimidin-2-yl)amino]-3-methoxy-phenyl]-N,N-dimethyl-piperazine-2-carboxamide] | 11 nM
17 | CC(=O)N1CCN(c2ccc(Nc3ncc(Cl)c(-c4cnc5ccccn45)n3)c(C)c2C)CC1 [Example 3.32, 1-[4-[4-[(5-chloro-4-imidazo[1,2-a]pyridin-3-yl-pyrimidin-2-yl)amino]-2,3-dimethyl-phenyl]piperazin-1-yl]ethanone] | 12 nM
18 | COc1cc(N2CCN(C[C@@H](C)O)CC2)ccc1Nc1ncc(C)c(-c2cnc3ccccn23)n1 [Example 105, (2R)-1-[4-[4-[(4-imidazo[1,2-a]pyridin-3-yl-5-methyl-pyrimidin-2-yl)amino]-3-methoxy-phenyl]piperazin-1-yl]propan-2-ol] | 26 nM
19 | COc1cc(N2CCN(C(=O)[C@@H](C)O)CC2)ccc1Nc1ncc(Cl)c(-c2cnn3ccccc23)n1 [Example 131, (2R)-1-[4-[4-[(5-chloro-4-pyrazolo[1,5-a]pyridin-3-yl-pyrimidin-2-yl)amino]-3-methoxy-phenyl]piperazin-1-yl]-2-hydroxy-propan-1-one] | 3 nM
20 | COc1cc(C2CCN(C(C)=O)CC2)ccc1Nc1ncc(C#N)c(-c2cnn3ccccc23)n1 [Example 239, 2-[4-(1-acetyl-4-piperidyl)-2-methoxy-anilino]-4-pyrazolo[1,5-a]pyridin-3-yl-pyrimidine-5-carbonitrile] | 110 nM
21 | COc1cc(C(CO)CNC(C)=O)ccc1Nc1ncc(Cl)c(-c2cnc3ccccn23)n1 (stereo not drawn) [Example 276, N-[2-[4-[(5-chloro-4-imidazo[1,2-a]pyridin-3-yl-pyrimidin-2-yl)amino]-3-methoxy-phenyl]-3-hydroxy-propyl]acetamide] | 15 nM
22 | COc1cc(OC2CN(C(=O)[C@@H](C)O)C2)ccc1Nc1ncc(Cl)c(-c2cnc3ccccn23)n1 [Example 27.6, (2R)-1-[3-[4-[(5-chloro-4-imidazo[1,2-a]pyridin-3-yl-pyrimidin-2-yl)amino]-3-methoxy-phenoxy]azetidin-1-yl]-2-hydroxy-propan-1-one] | 14 nM
23 | COc1cc(CN[C@@H](C)CO)ccc1Nc1ncc(Cl)c(-c2cnc3ccccn23)n1 [Example 21.19, (2S)-2-[[4-[(5-chloro-4-imidazo[1,2-a]pyridin-3-yl-pyrimidin-2-yl)amino]-3-methoxy-phenyl]methylamino]propan-1-ol] | 23 nM
24 | COc1cc(N2CCCC2)ccc1Nc1ncc(Cl)c(-c2cnc3ccccn23)n1 [Example 3.44, 5-chloro-4-imidazo[1,2-a]pyridin-3-yl-N-(2-methoxy-4-pyrrolidin-1-yl-phenyl)pyrimidin-2-amine] | 0.3 nM
25 | COc1cc(CN2CCN(C)CC2)ccc1Nc1ncc(Cl)c(-c2cnc3ccccn23)n1 [Example 21.4, 5-chloro-4-imidazo[1,2-a]pyridin-3-yl-N-[2-methoxy-4-[(4-methylpiperazin-1-yl)methyl]phenyl]pyrimidin-2-amine] | 30 nM
26 | CC(=O)N1CCN(c2cccc(Nc3ncc(Cl)c(-c4cnc5ccccn45)n3)c2C)CC1 [Example 3.37, 1-[4-[3-[(5-chloro-4-imidazo[1,2-a]pyridin-3-yl-pyrimidin-2-yl)amino]-2-methyl-phenyl]piperazin-1-yl]ethanone] | 12 nM
27 | COc1cc(N2CCN(C(=O)N3CCOCC3)CC2)ccc1Nc1ncc(Cl)c(-c2cnc3ccccn23)n1 [Example 46, [4-[4-[(5-chloro-4-imidazo[1,2-a]pyridin-3-yl-pyrimidin-2-yl)amino]-3-methoxy-phenyl]piperazin-1-yl]-morpholino-methanone] | 13 nM
28 | COc1cc(C2CCN(C(=O)CO)CC2)ccc1Nc1ncc(C)c(-c2cnn3ccccc23)n1 [Example 163, 2-hydroxy-1-[4-[3-methoxy-4-[(5-methyl-4-pyrazolo[1,5-a]pyridin-3-yl-pyrimidin-2-yl)amino]phenyl]-1-piperidyl]ethanone] | 16 nM
29 | COc1cc(N(C)CCN(C)C(=O)CO)ccc1Nc1ncc(Cl)c(-c2cnc3c(F)cccn23)n1 [Example 220, N-[2-[4-[[5-chloro-4-(8-fluoroimidazo[1,2-a]pyridin-3-yl)pyrimidin-2-yl]amino]-3-methoxy-N-methyl-anilino]ethyl]-2-hydroxy-N-methyl-acetamide] | 5 nM
30 | COc1cc(CC(=O)N2CCN(CCO)CC2)ccc1Nc1ncc(Cl)c(-c2cnc3ccccn23)n1 [Example 37, 2-[4-[(5-chloro-4-imidazo[1,2-a]pyridin-3-yl-pyrimidin-2-yl)amino]-3-methoxy-phenyl]-1-[4-(2-hydroxyethyl)piperazin-1-yl]ethanone] | 31 nM
